Assay results: US5223485A, “Anaphylatoxin-receptor ligands” (Abbott Laboratories, priority 1991, dated 1993)
Numbered stars: 1 amine (or outer) side, 2 acyl side, 3 side chain; on linkers, the order of the positions; unused ones are H or OH. Square brackets hold non-standard residues; d marks the D form. Peptide text beside a SMILES is read from it. * marks the point of attachment. ξ: configuration not given here. X3 = CC(C)C[C@H](NC[C@H](C)N*)C(=O)N[C@H](C)C(=O)N[C@@H](CCCNC(=N)N)C(=O)O; Phe(4-NO2) = N[C@@H](Cc1ccc([N+](=O)[O-])cc1)C(=O)O; X1 = O=C([C@@H](N[*:1])C(O)c1ccccc1)[*:2]; X2 = C[C@H](CN[C@@H](CCCNC(=N)N)C(=O)O)N*; NMe2Phe = CN(C)[C@@H](Cc1ccccc1)C(=O)*; NMeF = CN[C@@H](Cc1ccccc1)C(=O)O; hCha = N[C@@H](CCC1CCCCC1)C(=O)O; Cha = N[C@@H](CC1CCCCC1)C(=O)O; ξTic = O=C(O)C1Cc2ccccc2CN1; NMeA = CN[C@@H](C)C(=O)O; dNMeA = CN[C@H](C)C(=O)O; Boc = CC(C)(C)OC(=O)*

These molecules were tested against T1, C5a Receptor (Homo sapiens, UniProt P21730) (assay: Anaphylatoxin receptor binding Ki determination: inhibition of 125I-C5a binding to PMNL membrane fragments). Details: 0.03-1 nM 125I-C5a, 2.5-25 μg/mL purified PMNL membrane fragments, filtration; read-out: In vitro C5a Receptor Binding Potency Ki.
T1 construct: 2.5-25 μg/mL of purified PMNL membrane fragments; from tissue; host or cells: polymorphonuclear leukocyte (PMNL) membrane fragments
T1 sequence (P21730 1-350): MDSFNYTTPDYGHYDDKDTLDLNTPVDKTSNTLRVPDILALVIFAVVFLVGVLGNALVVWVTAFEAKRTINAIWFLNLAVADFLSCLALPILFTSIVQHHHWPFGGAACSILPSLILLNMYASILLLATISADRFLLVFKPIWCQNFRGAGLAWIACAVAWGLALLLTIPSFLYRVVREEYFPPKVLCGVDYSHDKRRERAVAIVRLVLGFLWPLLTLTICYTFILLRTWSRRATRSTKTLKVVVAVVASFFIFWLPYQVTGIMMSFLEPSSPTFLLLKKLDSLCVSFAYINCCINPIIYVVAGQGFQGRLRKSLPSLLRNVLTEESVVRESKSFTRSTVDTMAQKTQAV
Experimental: Specific inhibition of C5a binding activity of representative compounds of the present invention was measured using 0.03-1 nM ^125 I-C5a with 2.5-25 μg/mL of purified PMNL membrane fragments (Borregaard, N.; Heiple, J. M.; Simons, E. R.; and Clark, R. A. J. Cell. Biol. 1983, 97, 52-61.). Free and membrane-bound ligand were separated by filtration.

In order of falling Ki:
1. CC(C)C[C@H](NC[C@H](C)NC(=O)[C@H](CC1CCCCC1)NC(=O)[C@H](C)NC(=O)[C@H](CCCCN)NC(=O)[C@@H](N)Cc1ccccc1)C(=O)N[C@H](C)C(=O)N[C@@H](CCCNC(=N)N)C(=O)O [Example 409, H-phenylalanyl-Lysyl-Alanyl-{(2S)-2-Amino-3-Cyclohexylpropanoyl}-Alanyl-.psi.{CH2 --NH}-Leucyl-DAlanyl-Arginyl-OH] (H-FKA[Cha]-X3)  3800 nM
2. CC(C)C[C@H](NC(=O)[C@H](C)NC(=O)[C@H](CC1CCCCC1)NC(=O)[C@H](C)NC(=O)[C@H](CCCCN)NC(=O)[C@@H](N)Cc1ccccc1)C(=O)N[C@H](C)CN[C@@H](CCCNC(=N)N)C(=O)O [Example 421, H-Phenylalanyl-Lysyl-Alanyl-{(2S)-2-Amino-3-cyclohexylpropanoyl}-Alanyl-Leucyl-DAlanyl-.psi.{CH2 --NH}-Arginyl-OH] (H-FKA[Cha]AL-X2)  3200 nM
3. CC(=O)N[C@@H](Cc1c[nH]cn1)C(=O)N[C@@H](CCCCN)C(=O)N[C@@H](CC(=O)O)C(=O)N[C@@H](CC1CCCCC1)C(=O)N[C@@H](Cc1c[nH]cn1)C(=O)N[C@@H](CC(C)C)C(=O)N[C@H](C)C(=O)N[C@@H](CCCNC(=N)N)C(=O)O [Example 23, Ac-Histidyl-Lysyl-Aspartyl-{(2S)-2-Amino-3-cyclohexylpropanoyl}-Histidyl-Leucyl-DAlanyl-Arginyl-OH] (Ac-HKD[Cha]HL[dA]R-OH)  2400 nM
4. CC(C)C[C@H](NC(=O)[C@H](C)NC(=O)[C@@H](NC(=O)[C@H](C)NC(=O)[C@H](CCCCN)NC(=O)[C@@H](N)Cc1ccccc1)C(O)c1ccccc1)C(=O)N[C@H](C)C(=O)N[C@@H](CCCNC(=N)N)C(=O)O (stereo partly shown) [Example 117, H-Phenylalanyl-Lysyl-Alanyl-Phenylseryl-Alanyl-Leucyl-DAlanyl-Arginyl-OH] (H-FKA[X1]AL[dA]R-OH)  550 nM
5. CC(C)C[C@H](NC(=O)[C@H](Cc1ccccc1)NC(=O)[C@H](Cc1ccccc1)NC(=O)[C@H](CC(N)=O)NC(=O)[C@H](CCCCN)NC(=O)[C@@H](N)Cc1ccccc1)C(=O)N[C@H](C)C(=O)N[C@@H](CCCNC(=N)N)C(=O)O [Example 91, H-Phenylalanyl-Lysyl-Asparaginyl-Phenylalanyl-Phenylalanyl-Leucyl-DAlanyl-Arginyl-OH] (H-FKNFFL[dA]R-OH)  485 nM
6. CC(C)C[C@H](NC(=O)[C@H](CC1CCCCC1)NC(=O)[C@H](CC1CCCCC1)NC(=O)[C@H](C)NC(=O)[C@H](CCCCN)NC(=O)[C@@H](N)Cc1ccccc1)C(=O)N[C@H](C)C(=O)NCC(=O)N[C@@H](CCCNC(=N)N)C(=O)O [Example 213, H-Phenylalanyl-Lysyl-Alanyl-{(2S)-2-Amino-3-cyclohexylpropanoyl}-{(2S)-2-Amino-3-cyclohexylpropanoyl)-Leucyl-DAlanyl-Glycyl-Arginyl-OH] (H-FKA[Cha][Cha]L[dA]GR-OH)  330 nM
7. CC(C)C[C@H](NC(=O)CNC(=O)C1Cc2ccccc2CN1C(=O)[C@H](C)NC(=O)[C@H](CCCCN)NC(=O)[C@@H](N)Cc1ccccc1)C(=O)N[C@H](C)C(=O)N[C@@H](CCCNC(=N)N)C(=O)O (stereo partly shown) [Example 445, H-Phenylalanyl-Lysyl-Alanyl-{(3R/S)-1,2,3,4-Tetrahydroisoquinolin-3-carbonyl}-Glycyl-Leucyl-DAlanyl-Arginyl-OH] (H-FKA[ξTic]GL[dA]R-OH)  260 nM
8. CC(C)C[C@H](NC(=O)[C@@H](Cc1ccccc1)NC(=O)[C@H](CC1CCCCC1)NC(=O)[C@H](C)NC(=O)[C@H](CCCCN)NC(=O)[C@@H](N)Cc1ccccc1)C(=O)N[C@H](C)C(=O)N[C@@H](CCCNC(=N)N)C(=O)O [Example 220, H-Phenylalanyl-Lysyl-Alanyl-{(2S)-2-Amino-3-cyclohexylpropanoyl}-DPhenylalanyl-Leucyl-DAlanyl-Arginyl-OH] (H-FKA[Cha][dF]L[dA]R-OH)  220 nM
9. CC(C)C[C@H](NC(=O)CNC(=O)[C@H](CC1CCCCC1)NC(=O)[C@@H](Cc1ccccc1)NC(=O)[C@H](CCCCN)NC(=O)[C@@H](N)Cc1ccccc1)C(=O)N[C@H](C)C(=O)N[C@@H](CCCNC(=N)N)C(=O)O [Example 316, H-Phenylalanyl-Lysyl-DPhenylalanyl-{(2S)-2-Amino-3-cyclohexylpropanoyl}-Glycyl-Leucyl-DAlanyl-Arginyl-OH] (H-FK[dF][Cha]GL[dA]R-OH)  170 nM
10. CC(C)C[C@H](NC(=O)[C@H](C)NC(=O)[C@H](CC1CCCCC1)NC(=O)[C@H](C)NC(=O)[C@H](CCCCN)NC(=O)[C@H](Cc1ccccc1)NC(=O)OC(C)(C)C)C(=O)N[C@H](C)C(=O)N[C@@H](CCCNC(=N)N)C(=O)O [Example 404, tert-Butyloxycarbonyl-Phenylalanyl-Lysyl-Alanyl-{(2S)-2-Amino-3-cyclohexylpropanoyl}-Alanyl-Leucyl-DAlanyl-Arginyl-OH] (Boc-FKA[Cha]AL[dA]R-OH)  130 nM
11. C[C@H](NC(=O)[C@H](CCCCN)NC(=O)[C@@H](N)Cc1ccccc1)C(=O)N[C@@H](CC1CCCCC1)C(=O)NCC(=O)N[C@H](Cc1c[nH]c2ccccc12)C(=O)N[C@H](C)C(=O)N[C@@H](CCCNC(=N)N)C(=O)O [Example 249, H-Phenylalanyl-Lysyl-Alanyl-{(2S)-2-Amino-3-cyclohexylpropanoyl}-Glycyl-DTryptophyl-DAlanyl-Arginyl-OH] (H-FKA[Cha]G[dW][dA]R-OH)  110 nM
12. CC(=O)N[C@@H](Cc1ccc([N+](=O)[O-])cc1)C(=O)N[C@@H](CCCCN)C(=O)N[C@@H](CC(=O)O)C(=O)N[C@@H](CC1CCCCC1)C(=O)N[C@@H](CC1CCCCC1)C(=O)N[C@@H](CC(C)C)C(=O)N[C@H](C)C(=O)N[C@@H](CCCNC(=N)N)C(=O)O [Example 31, Ac-(4-NO2)Phenylalanyl-Lysyl-Aspartyl-{(2S)-2-Amino-3-cyclohexylpropanoyl}-{(2S)-2-Amino-3-cyclohexylpropanoyl}-Leucyl-DAlanyl-Arginyl-OH] (Ac-[Phe(4-NO2)]KD[Cha][Cha]L[dA]R-OH)  90 nM
13. CC(C)C[C@H](NC(=O)[C@H](C)NC(=O)[C@H](CCC1CCCCC1)NC(=O)[C@H](C)NC(=O)[C@H](CCCCN)NC(=O)[C@@H](N)Cc1ccccc1)C(=O)N[C@H](C)C(=O)N[C@@H](CCCNC(=N)N)C(=O)O [Example 106, H-Phenylalanyl-Lysyl-Alanyl-{(2S)-2-Amino-4-cyclohexylbutanoyl}-Alanyl-Leucyl-DAlanyl-Arginyl-OH] (H-FKA[hCha]AL[dA]R-OH)  42 nM
14. CC(C)C[C@H](NC(=O)[C@H](CC1CCCCC1)NC(=O)[C@H](CC1CCCCC1)NC(=O)[C@H](C)NC(=O)[C@H](CCCCN)NC(=O)[C@@H](N)Cc1ccccc1)C(=O)N(C)[C@H](C)C(=O)N[C@@H](CCCNC(=N)N)C(=O)O [Example 229, H-Phenylalanyl-Lysyl-Alanyl-{(2S)-2-Amino-3-cyclohexylpropanoyl}-{(2S)-2-Amino-3-cyclohexylpropanoyl}-Leucyl-(N-Methyl)DAlanyl-Arginyl-OH] (H-FKA[Cha][Cha]L[dNMeA]R-OH)  33 nM
15. CC(C)C[C@H](NC(=O)[C@H](CCCNC(=N)N)NC(=O)[C@H](CC1CCCCC1)NC(=O)[C@H](C)NC(=O)[C@H](CCCCN)NC(=O)[C@@H](N)Cc1ccccc1)C(=O)N[C@H](C)C(=O)N[C@@H](CCCNC(=N)N)C(=O)O [Example 432, H-Phenylalanyl-Lysyl-Alanyl-{(2S)-2-Amino-3-cyclohexylpropanoyl}-Arginyl-Leucyl-DAlanyl-Arginyl-OH] (H-FKA[Cha]RL[dA]R-OH)  30 nM
16. CC(C)C[C@H](NC(=O)CNC(=O)[C@@H](Cc1ccccc1)NC(=O)[C@H](C)NC(=O)[C@H](CCCCN)NC(=O)[C@@H](N)Cc1ccccc1)C(=O)N[C@H](C)C(=O)N[C@@H](CCCNC(=N)N)C(=O)O [Example 282, H-Phenylalanyl-Lysyl-Alanyl-DPhenylalanyl-Glycyl-Leucyl-DAlanyl-Arginyl-OH] (H-FKA[dF]GL[dA]R-OH)  29 nM
17. CN[C@@H](Cc1ccccc1)C(=O)N[C@@H](CCCCN)C(=O)N[C@@H](CCCNC(=N)N)C(=O)N[C@@H](CCSC)C(=O)N[C@@H](CCC(N)=O)C(=O)N[C@@H](CC(C)C)C(=O)NCC(=O)N[C@@H](CCCNC(=N)N)C(=O)O [Example 460, (N-Methyl)Phenylalanyl-Lysyl-Arginyl-Methionyl-Glutaminyl-Leucyl-Glycyl-Arginyl-OH] (H-[NMeF]KRMQLGR-OH)  21 nM
18. CC(C)C[C@H](NC(=O)CNC(=O)[C@H](CC1CCCCC1)NC(=O)[C@H](C)N(C)C(=O)[C@H](CCCCN)NC(=O)[C@H](Cc1ccccc1)N(C)C)C(=O)N(C)[C@H](C)C(=O)N[C@@H](CCCNC(=N)N)C(=O)O [Example 455, (N,N-di-Methyl)Phenylalanyl-Lysyl-(N-Methyl)Alanyl-{(2S)-2-Amino-3-cyclohexylpropanoyl}-Glycyl-Leucyl-(N-Methyl)DAlanyl-Arginyl-OH] (NMe2Phe-K[NMeA][Cha]GL[dNMeA]R-OH)  17 nM
19. CC(C)C[C@H](NC(=O)[C@H](C)NC(=O)[C@H](CC1CCCCC1)NC(=O)[C@H](C)NC(=O)[C@H](CCCCN)NC(=O)[C@@H](N)Cc1ccccc1)C(=O)N(C)[C@H](C)C(=O)N[C@@H](CCCNC(=N)N)C(=O)O [Example 296, H-Phenylalanyl-Lysyl-Alanyl-{(2S)-2-Amino-3-cyclohexylpropanoyl}-Alanyl-Leucyl-(N-Methyl)DAlanyl-Arginyl-OH] (H-FKA[Cha]AL[dNMeA]R-OH)  12 nM
